The structures appear in SMILES notation. Results filed as inconclusive are left out. Active and inactive are the calls of the source. How the calls were made is not given here. Bounds are passed on as bounds.

In the test the test system is Mycobacterium tuberculosis non-replicating, growth inhibition. As to the kind of experiment: growth inhibition of non-replicating M. tuberculosis (AID 488890).
With `O=C(NCCCN1CCCC1)c1cc2c(Cl)nc3ccccc3c2s1`, the IC50 (as a rule, the point on the concentration scale where inhibition reaches its midpoint) is 10.5 µM (inactive).

Take `COc1ccc(CCNc2nc(-c3ccccn3)cs2)cc1OC`: the IC50 is 8.4 µM.

`CCCOc1ccc(N2C(=O)CC(N3CCCC(C(=O)N4CCCC4)C3)C2=O)cc1` (stereo unspecified): the IC50 is 30.1 µM (inactive).

In the case of `O=C(COC(=O)C1CC2C=CC1C2)Nc1ccccc1` (stereo unspecified), the IC50 is 35.7 µM (inactive).

Consider `O=C(NCc1ccc(Cl)cc1)c1n[nH]c([N+](=O)[O-])c1Cl`, for which the IC50 was 13.9 µM (inactive).

`O=C1NC(=O)C(=Cc2ccc(-c3ccc(Cl)cc3)o2)C(=O)N1`: the half-inhibitory concentration (IC50) is below 0.1 µM.

As to `COC(=O)c1ccc(Cn2cc(C(F)(F)F)cc([N+](=O)[O-])c2=O)cc1`, the IC50 was 1.7 µM.

Take `CCCc1cc(C(=O)Nc2cccc(C(C)=O)c2)no1`: the IC50 was 10.2 µM (inactive).

Turning to `COc1cccc2sc(Nc3nnc(-c4cccs4)o3)nc12`, the IC50 was 4.87 µM.

On to `Cn1[nH]c(-c2ccccc2)c(/C=N/O)c1=O`, for which the IC50 was 8.99 µM.

For `CCn1c2ccccc2c2cc(CNCc3ccc(OC)cc3OC)ccc21`, the IC50 was 7.41 µM.

In the case of `COc1cc(/C=N/Nc2ccc(Cl)c(C(=O)O)c2)ccc1OC(=O)c1cccs1`, the 50% inhibitory concentration (IC50) is 8.27 µM.

Take `CCSc1nsc(NC(=O)Nc2ccc(F)cc2F)n1`: the IC50 is 18.9 µM (inactive).

`Cc1ccccc1-n1sc2cc(F)ccc2c1=O`: the IC50 is 9.85 µM.

As to `CCOCCOC(=O)COc1ccc2c(-c3ccccc3)cc(=O)oc2c1`, the IC50 is 0.98 µM.

`COc1ccc(NC(=O)c2cc([N+](=O)[O-])ccc2O)cc1`: the half-inhibitory concentration (IC50) was 7.71 µM.

As to `COc1ccccc1-c1nnc(NC(=O)c2ccc3ncsc3c2)o1`, the IC50 is 22.5 µM (inactive).

Take `O=C(COc1ccccc1)Nc1nnc(-c2ccc(Cl)cc2)o1`: the IC50 is 21.9 µM (inactive).

`CCOC(=O)c1cc2cc3ccccc3cc2oc1=O`: the IC50 is 37.6 µM (inactive).

For `CN(C)CC/C=C1\c2cc(Cl)ccc2Sc2cc(F)c(F)cc21`, the IC50 was 20.2 µM (inactive).

As to `CCCNC(=O)OCC12CC3CC(CC(C3)C1)C2`, the IC50 was 0.65 µM.

Take `COc1cccc2sc(Nc3nnc(-c4ccc(F)cc4)o3)nc12`: the IC50 is 2.67 µM.

Regarding `CC12CN3CC(C)(CN(C1)C3c1ccc([N+](=O)[O-])o1)C2` (stereo unspecified), the IC50 is 4.23 µM.

Consider `COc1ccccc1/C=N\Nc1cc(C)nc(-n2nc(C)cc2C)n1`, for which the IC50 is 1.77 µM.

With `COc1ccc(NC(=O)C(=O)NNC(=O)C(C)Oc2ccc(Cl)cc2Cl)cc1` (stereo unspecified), the IC50 was 1.53 µM.

As for `Cc1cnc(NC(=O)c2ccccn2)s1`, the IC50 was 8.53 µM.

For the molecule `O=C(Nc1cccnc1)c1cc(Cl)ccc1Cl`, the IC50 was 18.8 µM (inactive).

For `CCCn1c(NC(=O)c2ccc([N+](=O)[O-])o2)nc2ccccc21`, the IC50 is 7.64 µM.

For the molecule `Cc1ccn2c(NC3CCCC3)c(-c3ccccn3)nc2c1`, the IC50 is 12 µM (inactive).

In the case of `O=C(OCC#CCSc1nnc(-c2ccccc2)o1)c1ccco1`, the concentration for half-maximal inhibition (IC50) was 1.44 µM.

In the case of `CC(C)c1nnc(NC(=O)c2cc3cc(Br)ccc3oc2=O)s1`, the concentration for half-maximal inhibition (IC50) is 4.33 µM.

Regarding `COc1ccc(C(=O)COC(=O)CCC(=O)c2cccs2)cc1`, the IC50 is 34.2 µM (inactive).

Regarding `CSc1nc2ccc(NC(=O)C3CC(=O)N(Cc4ccccc4)C3)cc2s1` (stereo unspecified), the IC50 is 13.6 µM (inactive).

For `O=C1C=CC(O)(c2cc(=O)c3c(O)cc(O)cc3o2)C=C1`, the half-maximal inhibitory concentration (IC50) was 2.61 µM.

On to `Clc1cccc(/C=N\Nc2nccs2)c1`, for which the IC50 is 12 µM (inactive).

Consider `CC1C/C(=N/N2C(=O)CSC2=S)CC(C)(C)C1` (stereo unspecified), for which the IC50 was 30.6 µM (inactive).

Regarding `C/C(O)=C\c1nc2ccccc2oc1=O`, the IC50 is 3.18 µM.

Turning to `CCOC(=O)CNc1ccc(C(=O)OCC)cc1[N+](=O)[O-]`, the IC50 is 11 µM (inactive).

Take `O=C1CC(=O)CC(c2ccccc2)C1`: the IC50 was 29.8 µM (inactive).

Turning to `CC1CCc2c(sc3nc(CSc4ncn[nH]4)[nH]c(=O)c23)C1` (stereo unspecified), the IC50 is 14.4 µM (inactive).

Take `O=C(Nc1ncc([N+](=O)[O-])s1)c1cccs1`: the IC50 was 11.2 µM (inactive).

`Cc1cc(S(=O)(=O)c2ccc([N+](=O)[O-])cn2)ccc1Br`: the half-inhibitory concentration (IC50) is 0.15 µM.

As to `O=C(OCC#CCSc1nnc(-c2ccncc2)o1)c1cccs1`, the IC50 was 4.13 µM.

For the molecule `COC(=O)COc1ccc(S(=O)(=O)NCc2ccc3c(c2)OCO3)cc1`, the IC50 is 14.3 µM (inactive).

With `O=C(N/N=C\c1ccc(Cl)s1)C1COc2ccccc2O1` (stereo unspecified), the half-inhibitory concentration (IC50) was 0.97 µM.

For `Cc1ccc(C(=O)NNC(=S)NC(=O)c2ccc(Cl)cc2)cc1`, the IC50 was 4.01 µM.

For `Cc1ccc(CCC(=O)Nc2ccc(C)c(C)c2)o1`, the IC50 is 8.63 µM.

With `CC(C)(C)c1ccc(Cn2c(=N)n(CC(O)c3ccco3)c3ccccc32)cc1` (stereo unspecified), the 50% inhibitory concentration (IC50) is 7.36 µM.

`CC(/C=C/c1ccco1)=N/NC(=O)c1ccc(C)nc1`: the IC50 is 13.4 µM (inactive).

On to `O=C(Nc1ccc(Cl)c(Cl)c1)O/N=C/c1ccncc1`, for which the IC50 was 15.5 µM (inactive).

As for `O=C(c1ccccc1)C(CN1CCCC1)c1ccccc1` (stereo unspecified), the IC50 was 5.51 µM.

`CCOC(=O)COc1ccc(C(=O)c2ccccc2)c(O)c1`: the 50% inhibitory concentration (IC50) was 1.24 µM.

Take `COc1cccc(C(=O)OCC(=O)Nc2nnc(-c3ccccc3)o2)c1`: the IC50 is 22.8 µM (inactive).

On to `O=C(N/N=C/c1ccc(O)cc1)c1cccc(C(F)(F)F)c1`, for which the IC50 was 16 µM (inactive).

In the case of `Cc1nnc(-c2ccccc2)c(=O)n1/N=C/c1c(O)ccc2ccccc12`, the 50% inhibitory concentration (IC50) is 1.31 µM.

On to `Cc1ccc(NC(=O)COCC(=O)Nc2ccc(C)cc2)cc1`, for which the IC50 is 14.6 µM (inactive).

`O=C(N=Nc1c(O)[nH]c2ccc(Br)cc12)c1ccccc1-n1cccc1`: the half-inhibitory concentration (IC50) is 5.94 µM.

Take `O=C(COC(=O)c1ccccc1Cl)NCCC1=CCCCC1`: the IC50 was 14.1 µM (inactive).

For the molecule `NC(=O)C1(N2CCCCC2)CCN(C2CC(=O)N(CCc3ccccc3)C2=O)CC1` (stereo unspecified), the IC50 was 13 µM (inactive).

In the case of `CC(C)CN(Cc1c(O)ccc2ccccc12)CC(C)C`, the IC50 is 20.4 µM (inactive).

In the case of `C/C(=N\Nc1nc2ccccc2nc1C)c1ccccc1O`, the IC50 was 1.65 µM.

For the molecule `COc1cc(OC)c2c(OC)cccc2n1`, the concentration for half-maximal inhibition (IC50) was 6.63 µM.

On to `O=C(CCSc1ccccn1)c1ccccc1`, for which the half-maximal inhibitory concentration (IC50) is 9.72 µM.

For the molecule `COc1cccc(NC(=O)c2ccc(C(=O)c3ccccc3)o2)c1`, the IC50 is 3.36 µM.

On to `CCc1nnc(NC(=O)CN2CCN(c3ccccc3F)CC2)s1`, for which the IC50 is 29.2 µM (inactive).

`COC(=O)COc1ccc2c(=O)c(-c3ccccc3OC)coc2c1`: the IC50 is 7.87 µM.

On to `CCOC(=O)c1c(-c2ccccc2)csc1NC(=O)CCN1CCOCC1`, for which the IC50 was 24.4 µM (inactive).

With `CNC(=S)N1CCN(c2c(F)cc3c(=O)c(C(=O)O)cn(C4CC4)c3c2OC)CC1C` (stereo unspecified), the IC50 was 0.42 µM.

Turning to `Clc1ccc2c(c1)C(N1CCNCC1)Cc1ccccc1S2` (stereo unspecified), the IC50 is 15.2 µM (inactive).

For `Cc1cccc(NC(=O)c2ccc([N+](=O)[O-])s2)n1`, the IC50 is 0.52 µM.

For `CCOc1ccc(NC(=O)CCNC(=O)c2ccc(Br)cc2)cc1`, the IC50 is 13.8 µM (inactive).

As for `O=C(N/N=C/c1ccccc1O)c1cccc(C(F)(F)F)c1`, the half-maximal inhibitory concentration (IC50) is below 0.1 µM.

Take `CCS(=O)(=O)c1ncc(Cl)c(C(=O)Nc2ccc(S(=O)(=O)N(C)c3ccccc3)cc2)n1`: the IC50 was 7.18 µM.

For the molecule `O=C(N/N=C/c1cc(Br)c(Br)s1)c1ccncc1`, the 50% inhibitory concentration (IC50) is 3.18 µM.

Take `COc1ccc(N2C(=O)CC(Sc3nc4ccccc4s3)C2=O)cc1OC` (stereo unspecified): the IC50 is 14.2 µM (inactive).

As to `CN(CCCCOc1ccc(F)cc1)Cc1ccccc1`, the IC50 is 22.9 µM (inactive).

For the molecule `CCc1ccc(NC(=O)COc2ccc3c(c2)OCO3)cc1`, the IC50 was 5.33 µM.

In the case of `Cc1cc(NCc2ccccn2)n2nc(C)c(-c3ccccc3)c2n1`, the IC50 was 1.82 µM.

Take `CC1=NN(C(=O)c2cc(C)nn2C)C(O)(C(F)(F)F)C1` (stereo unspecified): the half-inhibitory concentration (IC50) is 7.51 µM.

With `O=C(OCC(=O)N1CCc2ccccc2C1)c1cccc([N+](=O)[O-])c1`, the IC50 is 9.6 µM.

As to `CCOC(=O)c1nc2sc3c(c2c(=O)[nH]1)CCC(C)C3` (stereo unspecified), the IC50 was below 0.1 µM.

Regarding `CCCCCCOC(=O)C(C#N)c1nc2ccccc2nc1N1CCN(CC)CC1` (stereo unspecified), the IC50 is 13.9 µM (inactive).

`CC(C)CSc1nnc2c3ccccc3n(C)c2n1`: the IC50 was 26.3 µM (inactive).

Regarding `O=C(CNc1cccc2ccccc12)N/N=C/c1ccc([N+](=O)[O-])o1`, the IC50 is 12.1 µM (inactive).

`COc1cccc(COC(=O)CCNC(=O)c2ccc(Br)cc2)c1OC`: the IC50 was 15.6 µM (inactive).

Turning to `O=C(N/N=C/c1ccccn1)c1cccc(S(=O)(=O)Nc2ccccc2Cl)c1`, the IC50 is 15.1 µM (inactive).

Consider `O=C(NCc1ccco1)c1nc2ccccc2s1`, for which the IC50 was 4.22 µM.

`O=C(CCN1CCC(c2cccs2)=N1)c1cccs1`: the half-maximal inhibitory concentration (IC50) is 4.15 µM.

In the case of `COc1cc(CNCCO)cc(Cl)c1OCc1ccc(Cl)cc1Cl`, the IC50 was 6.67 µM.

Take `Cn1c(NC(=O)c2ccccc2)nc2ccccc21`: the IC50 was 2.7 µM.

As for `COc1cccc(COC(=O)c2sc3nc4n(c(=O)c3c2C)CCC4)c1OC`, the IC50 was 2.48 µM.

For the molecule `Cc1n[nH]c(C)c1CCOc1ccc(C(C)C)cc1`, the IC50 was 19.5 µM (inactive).

Turning to `N#CC1=C(N)Oc2c(ccc3cccnc23)C1c1ccccc1` (stereo unspecified), the IC50 is 33.9 µM (inactive).

For the molecule `Cc1ccc2nc(NC(=O)COC(=O)c3ccc(Br)o3)sc2c1`, the IC50 is 35.8 µM (inactive).

Consider `CC(C)C(=O)Nc1cccc(-c2nc3ccccc3c(=O)o2)c1`, for which the IC50 was 3.79 µM.

Turning to `Cc1cccc(C(=O)Nc2nnc(-c3cccnc3)o2)c1`, the IC50 was 7.46 µM.

Regarding `CCCn1nnc(NC(=O)COc2ccc(CC)cc2)n1`, the IC50 is 17.9 µM (inactive).

On to `CCC(=O)c1ccc(OCC(=O)OCC(=O)N2CCc3ccccc3C2)cc1`, for which the IC50 was 13 µM (inactive).

As to `O=C(COc1ccc2c(c1)CCC2)Nc1ccccn1`, the IC50 was 11.6 µM (inactive).

Regarding `CSc1ccc(COC(=O)CCS(=O)(=O)c2ccc(C)cc2)cc1`, the IC50 is 19.2 µM (inactive).

In the case of `Cc1cc(Cl)ccc1NNC(=O)c1cccs1`, the IC50 was 14.5 µM (inactive).

The values are drawn from PubChem BioAssay AID488890 (Southern Research Specialized Biocontainment Screening …, 2010).
